In BindingDB's records for PubMed 31761383 (n/a, 2020):

How the values were obtained:
[1] = molecular target: T1, Amine oxidase [flavin-containing] B (Rattus norvegicus, UniProt P19643); test: Inhibition of rat brain synaptosome MAO-B
T1 sequence (P19643 whole entry): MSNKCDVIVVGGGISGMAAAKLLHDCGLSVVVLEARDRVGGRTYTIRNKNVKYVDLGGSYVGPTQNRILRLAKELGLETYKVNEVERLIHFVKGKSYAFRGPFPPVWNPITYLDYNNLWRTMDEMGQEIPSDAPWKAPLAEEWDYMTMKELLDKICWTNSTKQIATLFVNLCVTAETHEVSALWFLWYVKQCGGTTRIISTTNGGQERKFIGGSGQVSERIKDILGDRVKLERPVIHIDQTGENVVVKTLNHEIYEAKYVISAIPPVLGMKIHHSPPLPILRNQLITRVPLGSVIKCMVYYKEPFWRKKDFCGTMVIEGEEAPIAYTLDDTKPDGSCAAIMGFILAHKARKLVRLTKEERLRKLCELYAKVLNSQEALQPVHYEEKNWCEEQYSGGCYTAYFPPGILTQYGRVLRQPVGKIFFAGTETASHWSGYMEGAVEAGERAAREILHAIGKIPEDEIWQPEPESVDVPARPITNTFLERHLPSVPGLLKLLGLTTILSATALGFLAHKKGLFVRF

[2] = molecular target: T2, Amine oxidase [flavin-containing] A (Rattus norvegicus, UniProt P21396); test: Inhibition of rat brain synaptosome MAO-A
T2 sequence (P21396 whole entry): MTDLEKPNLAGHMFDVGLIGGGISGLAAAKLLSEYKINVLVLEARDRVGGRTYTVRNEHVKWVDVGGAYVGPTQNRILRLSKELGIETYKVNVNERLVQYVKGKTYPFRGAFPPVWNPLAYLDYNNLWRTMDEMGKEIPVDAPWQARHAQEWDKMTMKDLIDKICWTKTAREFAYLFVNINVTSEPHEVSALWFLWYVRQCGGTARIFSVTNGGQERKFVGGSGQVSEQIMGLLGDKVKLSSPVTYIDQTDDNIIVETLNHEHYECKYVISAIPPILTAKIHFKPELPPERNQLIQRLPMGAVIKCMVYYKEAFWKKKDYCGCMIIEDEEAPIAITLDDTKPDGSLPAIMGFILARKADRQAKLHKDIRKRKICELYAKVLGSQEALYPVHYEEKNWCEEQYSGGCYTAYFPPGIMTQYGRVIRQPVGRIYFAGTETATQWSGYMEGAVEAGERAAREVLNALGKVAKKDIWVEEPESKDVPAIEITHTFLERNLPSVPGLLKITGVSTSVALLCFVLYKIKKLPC

Q: Which results are given for `Cc1c(C(=O)CC(C#N)C#N)c(=O)n(-c2ccccc2)n1C`?
A: IC50 [1]: 13 nM; IC50 [2]: 2.3 nM
